ChEMBL document CHEMBL3988442, “University of Dundee, Small-Polar-MMV Screening Library” (2021)

Key:
[1] = microbe, parasite or virus in culture; settings: Mycobacterium tuberculosis, 72 h, read-out: pIC50 (converted)
[2] = microbe, parasite or virus in culture; settings: Mycobacterium tuberculosis, 96 h, read-out: pIC50 (converted)

Row | SMILES | IC50 [1] [µM] | IC50 [2] [µM]
1 | COc1cc(OC)c(NC(=O)Cn2ccnc2)cc1Cl | 243 | 264
2 | CC(=O)c1c(F)cccc1N1CCOCC1 | > 501 | > 501
3 | COC(=O)c1cc(C)nc(N2CCN(Cc3cc(C(C)C)no3)CC2)n1 | > 50.1 | > 50.1
4 | Cc1nnc(SCCCNC(=O)c2cc(Cl)c[nH]2)s1 | 121 | 119
5 | CS(=O)(=O)NC(c1ccc(F)cc1)c1cccnc1 (stereo not drawn) | 338 | > 501
6 | O=C(CSc1ccc(F)cc1)N1CCC1 | 180 | > 501
7 | CC(C)N(C)S(=O)(=O)N(C)Cc1ccc(Br)o1 | 204 | 394
8 | Cc1ccccc1C(=O)N1CC[C@@H]2CN(c3ncccn3)CCO[C@@H]2C1 | > 50.1 | > 50.1
9 | O=C(CCn1cccc1)NCc1ccco1 | 96 | > 501
10 | COc1c(C)cc(Br)cc1C(=O)Nc1nnn(C)n1 | 206 | 209
11 | O=C1OCCC1Sc1nnc(Nc2ccccc2)s1 (stereo not drawn) | 455 | > 501
12 | Cc1cnn(CC2CCCN2Cc2ncc(-c3ccc(F)cc3)o2)c1 (stereo not drawn) | 27 | > 50.1
13 | CC(OC(=O)c1ccc(C(F)(F)F)cc1)C(N)=O (stereo not drawn) | 229 | 466
14 | COC(=O)C(C)OC(=O)c1cccnc1SC (stereo not drawn) | > 501 | > 501
15 | CC(C)c1ccc(OCn2ccc(C(=O)N3CCCC3)n2)cc1 | 26.5 | 24.5
16 | CCCC1C=CCN1C(=O)c1cc(COc2ccc3c(c2)OCO3)[nH]n1 (stereo not drawn) | > 50.1 | 11.8
17 | Nc1cc(C2CCN(C(=O)Cc3ccsc3)CC2)no1 | 264 | > 501
18 | CCCc1ccc(C(=O)N2CCCN(C)CC2)cc1 | 270 | > 501
19 | CCC1CN(S(C)(=O)=O)c2ccccc2O1 (stereo not drawn) | 164 | > 501
20 | Cn1ccsc1=NC(=O)c1ccc(OCC(N)=O)cc1 | > 501 | > 501
21 | CC(=O)Nc1ccc(N2CCCCC2)nc1 | 97.2 | 95.3
22 | Cc1cc(C(=O)N(C)C[C@H](O)CO)cc(Cl)c1Br | 403 | 51.9
23 | NCC(=O)N1CCCC(CCc2ccc(F)c(F)c2)C1 (stereo not drawn) | 190 | 183
24 | COc1coc(CN2CCCC(CCc3ccc(F)c(F)c3)C2)cc1=O (stereo not drawn) | > 50.1 | 14.3
25 | CSc1ccc(CC(=O)N(C)Cc2ccon2)cc1 | > 501 | > 501
26 | Cc1nccc(C(=O)N2CCCN(Cc3cnn(C(C)C)c3)CC2)n1 | > 50.1 | > 50.1

Row | SMILES | IC50 [1] [µM] | IC50 [2] [µM]
27 | O=C(O)[C@@H]1CN(C(=O)NCC2CCCCC2)C[C@H]1c1ccccn1 | > 50.1 | > 50.1
28 | Cn1nnc(NCc2ccc(-c3ccc(Cl)cc3)o2)n1 | 42.2 | 8.3
29 | CCOCCOc1cc(C)ccc1CN | 208 | > 501
30 | N[C@H]1CC[C@H](Oc2ncccc2Cl)CC1 | 125 | > 501
31 | CN(C)c1cc2c(nn1)CCN(C(=O)c1cc3ccccc3[nH]c1=O)C2 | > 50.1 | > 50.1
32 | NC(=O)C(NC(=O)c1sccc1Br)c1ccccc1 (stereo not drawn) | > 501 | > 501
33 | CC(C)(C)n1cc(NC(=O)C2CN(Cc3ccccc3)CCO2)cn1 (stereo not drawn) | > 50.1 | > 50.1
34 | CNC(=O)c1cc(-c2ccccc2C)n[nH]1 | > 501 | 180
35 | Cc1nc(CSCCC(=O)Nc2cccc(N3CCNC3=O)c2)cs1 | > 50.1 | > 50.1
36 | Cc1n[nH]c(C)c1CCNC(=O)C1CCCN(Cc2ccco2)C1 (stereo not drawn) | > 50.1 | > 50.1
37 | CCCNc1nnc(SC2CCOC2)s1 (stereo not drawn) | 259 | 70.9
38 | Cc1ccc(CCNc2ncc(C)c(-c3ccnn3C)n2)s1 | 11.2 | > 50.1
39 | COc1ccc(C(=O)NC2=NCCS2)c(O)c1 | 456 | 185
40 | Cc1ccc2nnc(C(=O)NCC3CCCC3)nc2c1 | 10.4 | 13.4
41 | CCC(NC(=O)NCCCOC)C(C)C (stereo not drawn) | > 501 | > 501
42 | CC(C)Oc1ccc(C(=O)NCc2ccnc(N3CCCC3)c2)cn1 | 36.9 | 45.1
43 | COc1cccc(-c2cnn(CCC(N)=O)c2)c1F | 355 | > 501
44 | CCOC(=O)CCC(=O)c1ccc2c(c1)OCCO2 | 209 | 199
45 | COCCN(C)CCNC(=O)c1ccc(Cl)cc1 | 165 | > 501
46 | COc1ccc(C2SCC(=O)N2c2ncc(C)s2)cc1 (stereo not drawn) | 5.8 | 30.1
47 | c1cc(CNCc2ccc(-n3cncn3)nc2)cc(OC2CCCC2)c1 | 35 | 33.9
48 | Cc1cccc(Cl)c1OCCN | 319 | > 501
49 | Nc1ncccc1C(=O)NCCC1=CCCCC1 | 230 | > 501
50 | CCOCCC(=O)N1c2ccccc2OCC1C (stereo not drawn) | 97.6 | > 501
51 | CO[C@H]1CNCC1NC(=O)c1cc2ccccc2n1C (stereo partly drawn) | 359 | > 501
52 | OC(CN1CCn2ccnc2C1)c1cccc(F)c1 (stereo not drawn) | > 501 | > 501

Row | SMILES | IC50 [1] [µM] | IC50 [2] [µM]
53 | CC(CNC(=O)c1cnccn1)Oc1cccc(Br)c1 (stereo not drawn) | 0.211 | > 50.1
54 | NCC(O)c1ccc(Cl)s1 (stereo not drawn) | 241 | 290
55 | CC(C)C(O)CCNC(=O)Cc1cccc(O)c1 (stereo not drawn) | 430 | > 501
56 | Cc1c(C(=O)Nc2ccc3c(c2)OCCO3)cnn1C | > 501 | > 501
57 | O=S(=O)(Cc1ccc(Br)cc1)NCCO | > 50.1 | > 50.1
58 | CC(C)Cc1noc(CNc2cc3c(cc2Cl)OCCCO3)n1 | > 50.1 | 27.1
59 | NC(=O)C1(c2cnccn2)CCCN1C(=O)Cc1ccsc1 (stereo not drawn) | > 50.1 | > 50.1
60 | CC(C)COCC(O)CNc1nnc(C(C)C)s1 (stereo not drawn) | 111 | 86.9
61 | CN(Cc1cccnc1)C(=O)c1cc(Cl)c[nH]1 | 281 | 333
62 | COc1ccc(OC)c(NC(=O)COCC(F)(F)F)c1 | 227 | > 501
63 | CCC(C(=O)N1CCC(N)CC1)c1ccccc1 (stereo not drawn) | 118 | > 501
64 | CC(C)(N)CN1CCCN(c2ccc(F)cc2)CC1 | 203 | 265
65 | CN1CN(Cc2ccc(Cl)o2)CC1=O | > 501 | > 501
66 | COC(=O)CS(=O)(=O)c1ccc(C)c(Cl)c1 | 249 | > 501
67 | CC(C)N1CC2(CCCN(Cc3noc(C4CCCC4)n3)C2)CCC1=O (stereo not drawn) | > 50.1 | > 50.1
68 | CCC(C)Oc1cc(C(=O)NCC2(O)CCC2)ccn1 (stereo not drawn) | 62.8 | 29.6
69 | c1ccc(NC2CCN(C3CCCC3)C2)nc1 (stereo not drawn) | > 501 | > 501
70 | CCC(O)CN1CCN(c2ncccc2Br)CC1 (stereo not drawn) | > 501 | > 501
71 | O=C(c1cccnc1)N1CCC2(CC1)CNc1c(F)cccc12 | > 50.1 | > 50.1
72 | CC(=O)NCC1CN(c2ncccc2F)CCO1 (stereo not drawn) | 243 | 210
73 | CS(=O)(=O)NCC(=O)Nc1ccc(-n2cccn2)cc1 | > 501 | > 501
74 | NC(=O)c1ccc(-c2nc(C3CCCC3)no2)o1 | 338 | 228
75 | NC(=O)C(N)c1ccc2c(c1)OCCO2 (stereo not drawn) | > 501 | > 501
76 | O=c1c2ccccc2cnn1CN1CCCC1 | > 501 | > 501
77 | C=C(C)CCOC(=O)c1cc(C(N)=O)cs1 | 39.4 | 157
78 | OCCOCCNCC(O)COCc1ccccc1Cl (stereo not drawn) | > 501 | > 501

Row | SMILES | IC50 [1] [µM] | IC50 [2] [µM]
79 | NCC(=O)N1CCCC(CCc2ccccc2F)C1 (stereo not drawn) | 271 | 256
80 | CCN(CC)S(=O)(=O)CC(=O)Nc1ccc(F)c(C)c1 | 252 | 265
81 | CCOc1ccc(CN2CCc3nc4ccsc4c(=O)n3CC2)cc1 | 37.8 | 16.3
82 | Brc1cc2c(cc1CN1CCCNCC1)OCO2 | 112 | 460
83 | C=C(C)c1nc(C#N)c(NCc2ccco2)o1 | 142 | 170
84 | NC(=O)Nc1cccc(C(=O)Nc2ccc(Cl)cn2)c1 | 126 | 132
85 | O=C(c1cccc2cc[nH]c12)N1CCSCC1 | > 501 | > 501
86 | CC(C)CCC(C)NC(=O)Nc1ccccn1 (stereo not drawn) | 13.6 | 5.47
87 | COc1ccc(CNc2nc(C3CC3)nc3c(C)nn(C)c23)cc1 | 27.3 | 9.46
88 | CN(C)S(=O)(=O)c1ccc(F)c(NC(=O)COCC2CC2)c1 | 10.3 | > 50.1
89 | N#CC1(C(=O)NCCCNc2ccc(C(F)(F)F)cn2)CCCC1 | 0.198 | 1.69
90 | O=C(c1cc(Br)c[nH]1)N1CCN2CCCCC2C1 (stereo not drawn) | 232 | > 501
91 | COc1cc(C(=O)CCN(C)C)cc(OC)c1OC | 196 | 338
92 | O=C(NCc1nnc2n1CCCCC2)N(Cc1ccncc1)C1CC1 | > 50.1 | > 50.1
93 | Cc1n[nH]c(C)c1CN(C)C(C(=O)O)c1c(F)cccc1OC(C)C (stereo not drawn) | > 50.1 | > 50.1
94 | CN(C)c1cc(C2CCCN(C(=O)c3noc4c3CCCC4)C2)ccn1 (stereo not drawn) | 40 | 35.7
95 | N#Cc1ccc(NCc2cccc(COC3CCOCC3)c2)nc1 | > 50.1 | > 50.1
96 | CNC(=O)COC(=O)Cc1ccc(Br)cc1 | > 501 | > 501
97 | COc1ccc(Br)c(S(=O)(=O)N(C)C)c1 | 358 | > 501
98 | Cc1nc(CNC(=O)CC2=CCCCC2)no1 | > 501 | > 501
99 | CCNC(=O)NC(=O)CN(C)Cc1ccccc1 | 171 | 134
100 | Cc1cnn(CC2CN(Cc3nc4ccccc4s3)CCO2)c1 (stereo not drawn) | 34.7 | 14.7
101 | CN(c1ccc(F)cc1)S(=O)(=O)N1CCCCC1 | 204 | 267
102 | Cc1cc2c(cc1CNC(Cc1cccs1)c1nccs1)OCO2 (stereo not drawn) | 24.4 | > 50.1
103 | CCOc1cc(NCc2ncc(C)o2)ncn1 | 153 | > 501
104 | CNc1nc(NCCS(C)(=O)=O)ncc1Br | > 501 | > 501
